Our source for the IC50 values is publication PMC5497784 (Cell metabolism, 2017).

This assay has as its target IRE1α (Homo sapiens, UniProt O75460). Briefly: fluorescent XBP1 mini-substrate RNase assay with recombinant IRE1α*. The assay is classed as biochemical.

Molecules are shown by their SMILES.

Chain of IRE1α (O75460 469-977): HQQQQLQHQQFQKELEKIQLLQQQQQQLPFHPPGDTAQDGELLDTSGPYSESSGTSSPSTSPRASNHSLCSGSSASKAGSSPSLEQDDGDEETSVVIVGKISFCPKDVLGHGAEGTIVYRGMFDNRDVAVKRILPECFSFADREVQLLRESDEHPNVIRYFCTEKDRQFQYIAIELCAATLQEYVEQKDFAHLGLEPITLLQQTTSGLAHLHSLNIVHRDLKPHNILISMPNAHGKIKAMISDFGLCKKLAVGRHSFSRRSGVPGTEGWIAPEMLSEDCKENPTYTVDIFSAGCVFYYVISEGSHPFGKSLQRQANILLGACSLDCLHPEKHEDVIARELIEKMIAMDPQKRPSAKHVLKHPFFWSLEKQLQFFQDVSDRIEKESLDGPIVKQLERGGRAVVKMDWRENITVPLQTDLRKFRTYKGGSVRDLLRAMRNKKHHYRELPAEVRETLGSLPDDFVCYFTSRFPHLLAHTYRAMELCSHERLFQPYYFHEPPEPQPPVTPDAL

As to `CC(C)(C)c1nc(-c2ccc(NC(=O)Nc3cccc(C(F)(F)F)c3)c3ccccc23)c2c(N)nccn12` [KIRA6, 1-(4-(8-amino-3-tert-butylimidazo[1,5-a]pyrazin-1-yl)naphthalen-1-yl)-3-(3-(trifluoromethyl)phenyl)urea], the IC50 amounted to 0.0401 µM.
